# Laboratory results: patent publication US20180289702A1, “LPA LEVEL REDUCTION FOR TREATING CENTRAL NERVOUS SYSTEM DISORDERS” (priority 2015, published 2018)
# Columns and labels:
# [1] = tested on: PRG-1 het mice; assay: mEPSC recordings with HA-130; type: cell-based
# [2] = tested on: PRG-1+/− mice; assay: in vivo multi-unit activity (MUA) recordings in S1BF cortex; conditions: 1 μM applied into the cortex of living PRG-1+/− mice
# Text: In order to characterize the role of PRG-1 in cortical networks, the inventors then assessed expression of PRG-1 in the cerebral cortex and found strong expression in layer IV of the mouse somatosensory barrel field cortex (FIG. 3A) which was restricted to glutamatergic neurons. […] To understand implications of such a reduced synaptic PRG-1 function in intracortical information processing, the inventors performed multi-channel extracellular recordings in the S1BF cortex of wt and PRG-1^+/- mice in vivo (FIG. 3D). […] This finding points to a change in the cellular E/I balance towards excitation within cortical microcircuitries which has been related to severe behavioral deficits (Yizhar et al., 2011).
# [3] = tested on: PRG-1+/− mice; assay: double-pulse whisker stimulation model of sensory gating; type: in vivo; conditions: animals with monoallelic PRG-1-deficiency, ISI 500 ms
# Text: In addition to analysis of spontaneous cortical network activity, the inventors assessed pre-attentive cortical information processing and measured sensory gating in a double-pulse whisker stimulation model (FIG. 4A). Local field potentials (recorded in the whisker-specific cortical barrel) in response to repetitive single-whisker stimulation elicited larger amplitudes to second stimulus in PRG-1^+/− when compared to wt (S1; S2; ISI=500 ms; FIG. 4B). […] These findings indicate that already loss of one functional allele of prg-1 as present in mutPRG-1 carriers, and thus a reduction of about 50% of functional PRG-1 at the synapse, causes an apparent E/I-imbalance in cortical networks and an altered sensory gating.
# [4] = tested on: PRG-1+/− mice; assay: spontaneous postsynaptic currents (sPSC) with HA130; type: cell-based
# [5] = tested on: neuronal hyperexcitability induced by Ketamine; assay: ketamine-induced potentiation of evoked local field potentials (LFPs); type: cell-based, mice
# Text: This aim was to unravel whether ATX-inhibition is able to revert cortical hyperexcitability and an altered E/I balance independent of the underlying cause. As previously described (Nosyreva E et al. 2013), ketamine application inhibits spontaneous neurotransmission and induces afterwards a potentiation of synaptic responses over time (FIG. 8A).
smiles,measurement,setting,value
"O=C1S/C(=C\c2ccc(OCc3cccc(B(O)O)c3)cc2)C(=O)N1Cc1ccc(F)cc1 [HA130, (Z)-3-((4-((3-(4-Fluorobenzyl)-2,4-dioxo-1,3-thiazolan-5-yliden)-methyl)phenoxy)methyl)benzeneboronic acid]",mEPSCs (spontaneous glutamatergic release at presynaptic terminals),"[1]; 10 μM (FIG. 12B), genotype not stated in the panel legend",decreased
same,mEPSCs,"[1]; 10 μM, PRG-1 het mice (FIG. 12A)",decreased
same,number of multi-unit activity (MUA) bursts,[2],significantly decreased
same,S2/S1-ratio,[3],reduced
same,sensory gating,[3],significantly restored
same,spontaneous postsynaptic currents (sPSC),[4]; 1 μM,significant decrease
same,spontaneous postsynaptic currents (sPSC),[4]; 10 μM,significant decrease
same,ketamine-induced potentiation (evoked LFPs),[5]; 10 μM during ketamine wash out / potentiation phase,significantly decreased
same,"ketamine-induced potentiation, input-output curves",[5]; after HA-130 treatment,reverted to baseline values
